Assay results reported in patent US20100069302A1, “SPECIFIC THERAPY AND MEDICAMENT USING INTEGRIN LIGANDS FOR TREATING CANCER” (priority 2007, published 2010).
Several values for one entry are separate records, joined by “and”; a condition that tells them apart may be missing. Equal entries are not always repeated. Entries after “also recorded” stand apart in the source; their conditions may differ.

Legend:
[1] = tested on: patients with newly diagnosed glioblastoma (GBM); test: Phase I/IIa trial of cilengitide and temozolomide with concomitant radiotherapy, then maintenance, in newly diagnosed glioblastoma; type: in vivo, human
Description: Patients and methods: Fifty-two pts (PS 0-1: 92%, 2: 8%; median age 57 yrs) after biopsy (n=9/17%) or tumor resection (n=43/83%) were treated with standard TMZ/RT (Stupp et al. NEJM 2005). In addition Cilengitide (500 mg i.v., 2×/week) was started one week before TMZ/RT and given throughout for the duration of chemotherapy or until progression. Primary endpoint was progression free survival rate at 6 months (target: 65%). Patients were followed with MRI every 2 months. Histopathologic diagnosis and MRI imaging were independently reviewed, MGMT promoter methylation status was assessed in 45 (86.5%) pts.

[2] = tested on: patients with recurrent glioblastoma (GBM); test: Phase IIa trial of cilengitide single agent therapy in patients with recurrent glioblastoma; type: in vivo, human
Description: Background: The present phase IIa study was designed to evaluate the safety, toxicity, and clinical activity of the cyclic RGD pentapeptide cilengitide ((=cyclo-(Arg-Gly-Asp-DPhe-NMe-Val)), an inhibitor of integrins αvβ3 and αvβ5, as a single agent at doses of 500 and 2000 mg in patients (pts) with recurrent glioblastoma (GBM).
Methods: In this multicenter, open-label, randomized, uncontrolled study, pts with GBM and measurable disease that had relapsed after previous therapy with temozolomide and radiotherapy were randomized to receive cilengitide at doses of either 500 mg or 2000 mg i.v., 2×/week, until progression.
Histopathology diagnosis and MRI imaging were subject to independent blinded review. The primary endpoint was Progression Free Survival (PFS) at 6 months (mths). Secondary endpoints included response, survival, time to disease progression, safety, tolerability and pharmacokinetics.

[3] = tested on: U251 human glioblastoma cells; test: Rat orthotopic glioblastoma model radiotherapy, cilengitide scheduling experiments; type: in vivo, NIH mu nude rats; conditions: for Days Post Implant (survival): listed as Rt + EMD, 4 mg/kg
Description: NIH mu nude rats are anaesthetized, restrained, and injected intracerebrally 1 mm retro orbitally, 3 mm to the right of the bregma and at a depth of 2.5 mm with 5×10E5 U251 human glioblastoma cells suspended in 10 ul of culture medium, using a #2701 Hamilton syringe fitted with a 26 gauge needle, essentially as previously described (Engebraaten et al., 1999). After 14 days, cilengitide (4 mg/kg) is given as an intraperitoneal bolus in PBS, at various time (8 h, 4 h, 2 h, 1 h) prior to a single treatment with single, collimated, dorsal-ventral beam of 6 MV x-rays, so that 95-100% of the central axis dose of 25 Gy hit the tumor volume (Kim et al., 1999). Each of the 7 subsequent days the animals also received an identical i.p. bolus of cilengitide. The animals are maintained under ad libitum food and drink until they become moribund, or are sampled for tissue analysis (in the t-4 and t-8 h groups, where the animals are healthy past 230 days post tumor injection). A Kaplan-Meier survival curve is calculated and plotted (FIG. 1) from the raw data (Table 1). All animals in the RT monotherapy group died by 120 d.

various brain tumors = conditions: cited from earlier work
NSCLC (A549) = test: Proliferation assay (vitronectin-coated plates, Alamar Blue); type: cell-based; conditions: A549, 72 hours; concentration held constant in combination with chemotherapeutic agents; read-out: constant EC50 concentration of alpha V integrin blocker
Description: A549-DMEM containing 10% FCS (heat-inactivated) plus 2 mM glutamine,
(§1) Briefly, 2.5×10e4 cells/well in RPMI containing 0.5% BSA and 25 mM Hepes pH 7.4 attached to non-tissue culture treated 96-well plates coated with serially diluted vitronectin, fibronectin, fibrinogen and collagen I for 60 minutes at 37° C. After washing to remove unbound cells the relative cell number is determined by incubation with hexosaminidase substrate. The colormetric reaction is read at 405 nm in a Genios plate reader (SLT). Proliferation assay Non-tissue cultures treated 96 well plates are coated using 100 ul/well of a 2 ug/ml vitronectin solution in PBS incubated overnight at 4° C. Cells are plated at 5×10e3 in 100 ul cell culture medium (as described above for each cell line). […] Plates are incubated for 72 hours, after which relative cell number is determined by the addition of 20 ul/well Alamar Blue (Resazurin) (Nakayama et al. 1997). After 4 hours of incubation at 37° C. relative fluorescent intensity is read in a Genios plate reader (SLT) at 535/590 nm (excitation/emission).
(§2) Points are run in triplicate. Reagent blanks, containing media plus colormetric reagent without cells, are run on each plate. Blank values are subtracted from test values and are routinely 5-10% of uninhibited control values. […]

[4] = tested on: Endothelial Cells (HUVEC); test: as above; type: cell-based; conditions: 72 hours, concentration held constant in combination with chemotherapeutic agents, read-out: constant EC50 concentration of alpha V integrin blocker
Description: HUVEC-DMEM containing 10% FCS (heat-inactivated) plus 2 mM glutamine and 1 mM sodium pyruvate.
as §1, §2

Structure (SMILES): CC(C)[C@H]1C(=O)N[C@@H](CCCN=C(N)N)C(=O)NCC(=O)N[C@@H](CC(=O)O)C(=O)N[C@H](Cc2ccccc2)C(=O)N1C [Cilengitide, cyclo-(Arg-Gly-Asp-DPhe-NMeVal)]
- haematological grade 3 and 4 toxicity: neutropenia ([1]; Cilengitide 500 mg plus TMZ/RT, 5/52): 9.6%
- Treatment related non-hematologic grade 3 toxicities, patients ([1]; Cilengitide 500 mg plus TMZ/RT, n=3/52): 5.7%
- PFS-6 rate ([1]; Cilengitide 500 mg plus TMZ/RT, subgroup with methylated MGMT promoter (23/52)): 91%
- tolerability ([1]; combination of Cilengitide and TMZ/RT): well tolerated
- other adverse event ([1]; one patient with a history of sigmoid diverticulosis): sigmoid perforation (grade 2)
- median Overall Survival (mOS) ([2]; 500 mg arm, i.v. 2x/week): 6.5 mths
- tumor control, dose comparison ([2]; 2000 mg 2x/week versus 500 mg, not statistically significant): trend towards better tumor control
- 12 mth overall survival (OS) rate ([2]; 2000 mg arm, i.v. 2x/week): 37.5%
- median Overall Survival (mOS) ([2]; 2000 mg arm, i.v. 2x/week): 9.9 mths
- Treatment related NCI CTC grade 3 adverse events ([2]; at 500 mg, each in 1 patient): elevated liver enzymes; also recorded: arthralgia/myalgia
- Treatment related NCI CTC grade 3 adverse events ([2]; at 2000 mg, in 1 patient): weight increase/edema
- grade 4 therapy related AEs ([2]; both arms): No grade 4 therapy related AEs
- pts who received 12 or more cycles of therapy ([2]; both arms, 10 pts (n=4 with 500 mg, n=6 with 2000 mg), 1 cycle=4 weeks): 12.3%
- pts still progression-free and on treatment ([2]; both arms, six pts, at time abstract was issued): 7.4%
- cerebral hemorrhage ([2]; possibly related either to the drug or to the disease): One CTC grade 2 cerebral hemorrhage
- single agent activity ([2]; recurrent glioblastoma): advantageous single agent activity
- tolerability ([2]; single agent therapy at two dose levels): tolerated well
- Days Post Implant (survival) ([3]; cilengitide bolus 4 mg/kg i.p. 1 hour pre-irradiation (Rt 25 Gy) plus 7 daily boluses, all Sick (moribund)): 112 days and 113 days and 130 days and 141 days
- Days Post Implant (survival) ([3]; cilengitide bolus 4 mg/kg i.p. 2 hours pre-irradiation (Rt 25 Gy) plus 7 daily boluses, all Sick (moribund)): 120 days and 147 days and 162 days and 196 days
- Days Post Implant (survival) ([3]; cilengitide bolus 4 mg/kg i.p. 4 hours pre-irradiation (Rt 25 Gy) plus 7 daily boluses, Healthy/Alive animals not dead at day shown): 238 days and 254 days
- Days Post Implant (survival) ([3]; cilengitide bolus 4 mg/kg i.p. 8 hours pre-irradiation (Rt 25 Gy) plus 7 daily boluses, Healthy/Alive animals not dead at day shown): 287 days and 257 days
- animals healthy, days post tumor injection ([3]; t-4 and t-8 h groups, cilengitide 4 mg/kg plus 25 Gy): > 230 days
- MTD in humans (various brain tumors; human, in vivo): no known MTD
- tolerability (various brain tumors; human, in vivo): very well tolerated
- response (various brain tumors; in some of the GBM patients): an indication of response was seen
- EC50 (NSCLC (A549)): 6 nM
- EC50 [4]: 0.2 nM
